According to paper PMC4008608, “The Tertiary Origin of the Allosteric Activation of E. coli Glucosamine-6-Phosphate Deaminase Studied by Sol-Gel Nanoencapsulation of Its T Conformer” (PLoS ONE, 2014):

Tests used:
[1] = biological target: T1, EcGNPDA (glucosamine-6-phosphate deaminase from Escherichia coli) (Escherichia coli, UniProt P0A759, C118S/D165C/S206W/C228S/C239S); experiment: initial velocity fitted to MWC equation; format: biochemical; settings: mutant F, soluble enzyme; MWC R-state substrate dissociation constant (stronger state) from velocity data; cooperative; read-out: K R ^a
T1 construct: gene nagB; full-length homohexamer; plasmid pTZ18RnagB in E. coli IBPC590 Δnag (stated for the mutant); encapsulated in silica sol-gel in T quaternary conformation (mutant F also in solution)
Excerpt: initial velocity fitted to MWC equation on […] (glucosamine-6-phosphate deaminase from Escherichia coli)

[2] = biological target: T2, EcGNPDA (glucosamine-6-phosphate deaminase from Escherichia coli) (Escherichia coli, UniProt P0A759); experiment: near-UV circular dichroism of enzyme-doped gels, […] nm; format: binding; settings: allosteric activator, 1 mM; ligand-free R-state gel; 100 mM Tris-HCl pH 7.7, 30°C
T2 construct: gene nagB; full-length homohexamer; plasmid pTZ18RnagB in E. coli IBPC590 Δnag (stated for the mutant); encapsulated in silica sol-gel in T quaternary conformation (mutant F also in solution)

Compound: N[C@H]1C(O)O[C@H](COP(=O)(O)O)[C@@H](O)[C@@H]1O (some centres unmarked) [GlcN6P]
- Kd [1]: 440 ± 10 µM

Compound: CC(=O)N[C@H]1C(O)O[C@H](COP(=O)(O)O)[C@@H](O)[C@@H]1O (some centres unmarked) [GlcNAc6P]
- near-UV circular dichroism of enzyme-doped gels, 274 nm [2]: Only the enzyme in the R state when in presence of the activator, displays
